Assays:
[1] = biological target: T1, human IDO1/HEK293 cells (Homo sapiens, UniProt P14902); test: HEK Human IDO-1 cell-based IDO inhibition assay (kynurenine production); conditions: HEK293 cells stably expressing human IDO1, 20 hours incubation, absorbance at 490 nm; read-out: HEK Human IDO-1 Bio Activity (IDO IC50)
T1 construct: expressed in transfected cells
Outline: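 Stopped with 0.2% TCA, 50 °C 30 min; supernatant mixed with 0.2% Ehrlich reagent, 30 min RT, kynurenine read as absorbance at 490 nm.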

T1 sequence (P14902 whole entry): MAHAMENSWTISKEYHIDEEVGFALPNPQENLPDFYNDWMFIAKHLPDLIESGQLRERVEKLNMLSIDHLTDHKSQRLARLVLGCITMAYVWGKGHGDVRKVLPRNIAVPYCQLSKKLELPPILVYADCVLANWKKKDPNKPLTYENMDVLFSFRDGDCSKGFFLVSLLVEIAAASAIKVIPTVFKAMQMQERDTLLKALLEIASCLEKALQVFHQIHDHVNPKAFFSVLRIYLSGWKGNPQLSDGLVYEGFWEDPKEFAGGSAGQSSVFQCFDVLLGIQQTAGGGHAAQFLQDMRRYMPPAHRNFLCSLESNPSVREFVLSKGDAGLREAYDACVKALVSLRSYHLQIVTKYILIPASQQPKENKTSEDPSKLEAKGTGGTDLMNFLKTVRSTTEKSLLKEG

Compound | IC50 [1] [nM] | melting point [°C]
O=C(NCC1(O)CCN(c2ccnc3ccc(F)cc23)CC1)c1ccc(Cl)cc1 [Example 81, 4-Chloro-N-((1-(6-fluoroquinolin-4-yl)-4-hydroxypiperidin-4-yl)methyl)benzamide] | < 2000 | 91 to 94
C=CC[C@@H](NC(=O)c1ccc(-c2ccccc2)cc1)[C@H]1CC[C@@H](c2ccnc3ccc(F)cc32)CC1 [Example 199, N—((R)-1-((is, 4S)-4-(6-fluoroquinolin-4-yl)cyclohexyl)but-3-en-1-yl)-[1,1′-biphenyl]-4-carboxamide] | < 2000 | –
CC(NC(=O)c1ccc(Cl)cc1)C1CCC(c2ccnc(C(F)(F)F)c2)CC1 (centres unmarked) [Example 211, 4-chloro-N-(1-(4-(2-(trifluoromethyl)pyridin-4-yl)cyclohcxyl)ethyl)benzamide] | < 250 | –
CC(NC(=O)c1ccc(Cl)cc1)C1CCC(c2ccc(C(F)(F)F)nc2)CC1 (centres unmarked) [Example 216, 4-chloro-N-(1-(4-(6-(trifluoromcthyr)pyridin-3-yl)cyclohexyl)ethyl)benzamide] | < 250 | –
Cc1c(C2CCC(C(C)NC(=O)c3ccc(-c4ccccc4)cc3)CC2)ccnc1F (centres unmarked) [Example 221, N-(1-(4-(2-fluoro-3-methylpyridin-4-yl)cyclohexyl)ethyl)-[1,1′-biphenyl]-4-carboxamide] | < 50 | –
CC1(CNC(=O)c2ccc(Cl)cc2)CCN(c2ccnc3ccc(F)cc23)CC1 [Example 226, 4-Chloro-N-((1-(6-fluoroquinolin-4-yl)-4-methylpiperidin-4-yl)methyl)benzamide] | < 2000 | –
CC1(CNC(=O)c2ccc(Cl)cc2)CCN(c2ccnc(C(F)(F)F)c2)CC1 [Example 227, 4-Chloro-N-((4-methyl-1-(2-(trifluoromethyl)pyridin-4-yl)piperidin-4-yl)methyl)benzamide] | < 2000 | –
CC1(CNC(=O)c2ccc(-c3ccccc3)cc2)CCN(c2ccnc(C(F)(F)F)c2)CC1 [Example 228, N-((4-Methyl-1-(2-(trifluoromethyl)pyridin-4-yl)piperidin-4-yl)methyl)-[1,1′-biphenyl]-4-carboxamide] | < 2000 | –
Cc1nnc(-c2ccc(C(=O)N[C@H](C)[C@H]3CC[C@@H](c4ccnc5ccc(F)cc54)CC3)cc2)o1 [Example 232, N—((R)-1-((1s,4S)-4-(6-fluoroquinolin-4-yl)cyclohexyl)ethyl)-4-(5-methyl-1,3,4-oxadiazol-2-yl)benzamide] | < 250 | –
C[C@@H](NC(=O)c1ccc(-c2cnccn2)cc1)[C@H]1CC[C@@H](c2ccnc3ccc(F)cc32)CC1 [Example 233, N-((R)-1-((1s,4S)-4-(6-fluoroquinolin-4-yl)cyclohexyl)ethyl)-4-(pyrazin-2-yl)benzamide] | < 50 | –
C[C@@H](NC(=O)c1ccc(-c2cncnc2)cc1)[C@H]1CC[C@@H](c2ccnc3ccc(F)cc32)CC1 [Example 234, N-((R)-1-((1s,4S)-4-(6-fluoroquinolin-4-yl)cyclohexyl)ethyl)-4-(pyrimidin-5-yl)benzamide] | < 50 | –
C[C@@H](NC(=O)c1ccc(-c2cn(C)cn2)cc1)[C@H]1CC[C@@H](c2ccnc3ccc(F)cc32)CC1 [Example 235, N-((R)-1-((1s,4S)-4-(6-fluoroquinolin-4-yl)cyclohexyl)cthyl)-4-(1-methyl-1H-imidazol-4-yl)benzamide] | < 50 | –
COc1nccc(-c2ccc(C(=O)N[C@H](C)[C@H]3CC[C@@H](c4ccnc5ccc(F)cc54)CC3)cc2)n1 [Example 236, N-((R)-1-((1s,4S)-4-(6-fluoroquinolin-4-yl)cyclohexyl)ethyl)-4-(2-methoxypyrimidin-4-yl)benzamide] | < 50 | –
C[C@@H](NC(=O)c1ccc(-c2ccc(S(C)(=O)=O)nc2)cc1)[C@H]1CC[C@@H](c2ccnc3ccc(F)cc32)CC1 [Example 237, N-((R)-1-((1s,4S)-4-(6-fluoroquinolin-4-yl)cyclohexyl)ethyl)-4-(6-(methylsulfonyl)pyridin-3-yl)benzamide] | < 2000 | –
Cc1ncc(-c2ccc(C(=O)N[C@H](C)[C@H]3CC[C@@H](c4ccnc5ccc(F)cc54)CC3)cc2)s1 [Example 238, N-((R)-1-((1s,4S)-4-(6-fluoroquinolin-4-yl)cyclohexyl)ethyl)-4-(2-methylthiazol-5-yl)benzamide] | < 50 | –
C[C@@H](NC(=O)c1ccc(-c2cnc(C#N)nc2)cc1)[C@H]1CC[C@@H](c2ccnc3ccc(F)cc32)CC1 [Example 240, 4-(2-cyanopyrimidin-5-yl)-N-((R)-1-((1s,4S)-4-(6-fluoroquinolin-4-yl)cyclohexyl)ethyl)benzamide] | < 2000 | –
COc1nc(-c2ccc(C(=O)N[C@H](C)[C@H]3CC[C@@H](c4ccnc5ccc(F)cc54)CC3)cc2)cs1 [Example 241, N-((R)-1-((1s,4S)-4-(6-fluoroquinolin-4-yI)cyclohexyl)ethyl)-4-(2-methoxythiazol-4-yl)benzamide] | < 50 | –

Compound | IC50 [1] [nM] | melting point [°C]
C[C@@H](NC(=O)c1ccc(-c2ccc(C(C)(C)O)cc2)cc1)[C@H]1CC[C@@H](c2ccnc3ccc(F)cc32)CC1 [Example 242, N-((R)-1-((1s,4S)-4-(6-fluoroquinolin-4-yl)cyclohexyl)ethyl)-4′-(2-hydroxypropan-2-yl)biphenyl-4-carboxamide] | < 250 | –
C[C@@H](NC(=O)c1ccc(-c2cscn2)cc1)[C@H]1CC[C@@H](c2ccnc3ccc(F)cc32)CC1 [Example 243, N-((R)-1-((1s,4S)-4-(6-fluoroquinolin-4-yl)cyclohcxyl)cthyl)-4-(thiazol-4-yl)benzamide] | < 50 | –
C[C@@H](NC(=O)c1ccc(-c2nnco2)cc1)[C@H]1CC[C@@H](c2ccnc3ccc(F)cc32)CC1 [Example 244, N-((R)-1-((1s,4S)-4-(6-fluoroquinolin-4-yl)cyclohexyl)ethyl)-4-(1,3,4-oxadiazol-2-yl)benzamide] | < 50 | –
COc1ccc(-c2ccc(C(=O)N[C@H](C)[C@H]3CC[C@@H](c4ccnc5ccc(F)cc54)CC3)cc2)cn1 [Example 245, N-((R)-1-((1s,4S)-4-(6-fluoroquinolin-4-yl)cyclohexyl)ethyl)-4-(6-methoxypyridin-3-yl)benzamide] | < 50 | –
C[C@@H](NC(=O)c1ccc(N2CCOCC2)cc1)[C@H]1CC[C@@H](c2ccnc3ccc(F)cc32)CC1 [Example 246, N-((R)-1-((1s,4S)-4-(6-fluoroquinolin-4-yl)cyclohexyl)ethyl)-4-morpholinobenzamide] | < 250 | –
C[C@@H](NC(=O)c1ccc(C2CC2)cc1)[C@H]1CC[C@@H](c2ccnc3ccc(F)cc32)CC1 [Example 247, 4-cyclopropyl-N-((R)-1-((1s,4S)-4-(6-fluoroquinolin-4-yl)cyclohexyl)ethyl)benzamide] | < 50 | –
C[C@@H](NC(=O)c1ccc(C2(C)CC2)cc1)[C@H]1CC[C@@H](c2ccnc3ccc(F)cc32)CC1 [Example 248, N-((R)-1-((1s,4S)-4-(6-fluoroquinolin-4-yl)cyclohexyl)ethyl)-4-(1-methylcyclopropyl)benzamide] | < 50 | –
C[C@@H](NC(=O)c1ccc(C(F)(F)F)cc1)[C@H]1CC[C@@H](c2ccnc3ccc(F)cc32)CC1 [Example 249, N-((R)-1-((1s,4S)-4-(6-fluoroquinolin-4-yl)cyclohexyl)ethyl)-4-(trifluoromethyl)benzamide] | < 50 | –
C[C@@H](NC(=O)c1ccc(-c2cnco2)cc1)[C@H]1CC[C@@H](c2ccnc3ccc(F)cc32)CC1 [Example 250, N-((R)-1-((1s,4S)-4-(6-fluoroquinolin-4-yl)cyclohexyl)ethyl)-4-(oxazol-5-yl)benzamide] | < 50 | –
C[C@@H](NC(=O)c1ccc(-c2ncnn2C)cc1)[C@H]1CC[C@@H](c2ccnc3ccc(F)cc32)CC1 [Example 251, N-((R)-1-((1s,4S)-4-(6-fluoroquinolin-4-yl)cyclohexyl)ethyl)-4-(1-methyl-1H-1,2,4-triazol-5-yl)benzamide] | < 250 | –
Cc1cnc(-c2ccc(C(=O)N[C@H](C)[C@H]3CC[C@@H](c4ccnc5ccc(F)cc54)CC3)cc2)s1 [Example 252, N-((R)-1-((1s,4S)-4-(6-fluoroquinolin-4-yl)cyclohexyl)ethyl)-4-(5-methylthiazol-2-yl)benzamide] | < 50 | –
C[C@@H](NC(=O)c1ccc(-c2ncc(C#N)s2)cc1)[C@H]1CC[C@@H](c2ccnc3ccc(F)cc32)CC1 [Example 253, 4-(5-cyanothiazol-2-yl)-N-((R)-1-((1s,4S)-4-(6-fluoroquinolin-4-yl)cyclohexyl)ethyl)benzamide] | < 50 | –
CCC(NC(=O)c1ccc(Cl)cc1)[C@H]1CC[C@@H](c2ccnc3ccc(C(F)(F)F)cc32)CC1 (some centres unmarked) [Example 254, 4-chloro-N-(1-((1s, 4s)-4-(6-(trifluoromethyl)quinolin-4-yl)cyclohexyl)propyl)benzamide] | < 50 | –
CCC(NC(=O)c1ccc(-n2cccc2)cc1)[C@H]1CC[C@@H](c2ccnc3ccc(C(F)(F)F)cc32)CC1 (some centres unmarked) [Example 255, 4-(1H-pyrrol-1-yl)-N-(1-((1s, 4s)-4-(6-(trifluoromethyl)quinolin-4-yl)cyclohexyl)propyl)benzamide] | < 50 | –
CCC(NC(=O)c1ccc(OC)nc1)[C@H]1CC[C@@H](c2ccnc3ccc(C(F)(F)F)cc32)CC1 (some centres unmarked) [Example 256, 6-methoxy-N-(1-((1s, 4S)-4-(6-(trifluoromethyl)quinolin-4-yl)cyclohexyl)propyl)nicotinamide] | < 50 | –
CCC(NC(=O)c1ccc(-c2ccccc2)cc1)C1CCC(c2ccnc3ccc(F)cc23)CC1 (centres unmarked) [Example 258, N-(1-(4-(6-fluoroquinolin-4-yl)cyclohexyl)propyl)bi-phenyl-4-carboxamide] | < 50 | –
(R)-1-(cis-4-(6-fluoroquinolin-4-yl)cyclohexyl)-N-methylethanamine [Example 194] | < 50 | –

Source: patent publication US20180325889A1, “IMMUNOREGULATORY AGENTS” (FLEXUS BIOSCIENCES, INC., priority 2014, published 2018)
